ChEMBL document CHEMBL1156502, “Stabilized immune modulatory RNA compounds as agonists of Toll-like receptors 7 and 8” (Proc Natl Acad Sci U S A, 2007)
The source made the active and inactive calls. The calls are words filed in the database; no cut-off is given here.

Key:
[1] = biological target: T1, Toll-like receptor 7 (Homo sapiens) (UniProt Q9NYK1); test: Activation of human TLR7 expressed in HEK293 cells assessed as increase in NF-kappaB activation at 100 ug/ml by SEAP assay; type: cell-based
T1 sequence (whole entry): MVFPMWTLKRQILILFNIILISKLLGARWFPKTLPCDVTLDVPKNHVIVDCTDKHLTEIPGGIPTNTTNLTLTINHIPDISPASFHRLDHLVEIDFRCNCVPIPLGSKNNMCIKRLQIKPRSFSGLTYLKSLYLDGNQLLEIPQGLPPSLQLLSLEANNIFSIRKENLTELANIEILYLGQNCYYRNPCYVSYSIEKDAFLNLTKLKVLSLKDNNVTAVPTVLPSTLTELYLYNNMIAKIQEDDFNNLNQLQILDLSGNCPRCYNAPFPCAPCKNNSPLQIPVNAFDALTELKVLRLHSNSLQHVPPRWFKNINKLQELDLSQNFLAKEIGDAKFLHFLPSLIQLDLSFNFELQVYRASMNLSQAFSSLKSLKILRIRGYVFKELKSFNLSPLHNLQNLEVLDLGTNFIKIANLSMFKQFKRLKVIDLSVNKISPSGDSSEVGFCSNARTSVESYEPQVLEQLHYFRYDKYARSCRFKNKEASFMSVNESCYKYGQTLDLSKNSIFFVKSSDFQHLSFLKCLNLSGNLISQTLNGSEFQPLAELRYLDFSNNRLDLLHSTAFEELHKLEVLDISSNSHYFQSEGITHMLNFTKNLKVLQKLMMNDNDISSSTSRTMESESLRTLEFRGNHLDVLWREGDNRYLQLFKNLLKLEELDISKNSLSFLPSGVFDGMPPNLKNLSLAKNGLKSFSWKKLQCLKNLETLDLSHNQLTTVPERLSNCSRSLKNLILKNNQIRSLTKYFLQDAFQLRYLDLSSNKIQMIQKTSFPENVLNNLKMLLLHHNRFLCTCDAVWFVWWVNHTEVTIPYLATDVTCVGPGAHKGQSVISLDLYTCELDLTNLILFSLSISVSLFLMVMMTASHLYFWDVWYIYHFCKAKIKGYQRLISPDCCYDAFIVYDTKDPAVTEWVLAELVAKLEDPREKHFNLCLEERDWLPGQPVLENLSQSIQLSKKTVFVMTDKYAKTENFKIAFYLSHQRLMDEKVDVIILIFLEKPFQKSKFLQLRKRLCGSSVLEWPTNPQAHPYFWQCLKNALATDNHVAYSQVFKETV

[2] = biological target: T2, Toll-like receptor 8 (Homo sapiens) (UniProt Q9NR97); test: Activation of human TLR8 expressed in HEK293 cells assessed as increase in NF-kappaB activation at 100 ug/ml by SEAP assay; type: cell-based
T2 sequence (whole entry): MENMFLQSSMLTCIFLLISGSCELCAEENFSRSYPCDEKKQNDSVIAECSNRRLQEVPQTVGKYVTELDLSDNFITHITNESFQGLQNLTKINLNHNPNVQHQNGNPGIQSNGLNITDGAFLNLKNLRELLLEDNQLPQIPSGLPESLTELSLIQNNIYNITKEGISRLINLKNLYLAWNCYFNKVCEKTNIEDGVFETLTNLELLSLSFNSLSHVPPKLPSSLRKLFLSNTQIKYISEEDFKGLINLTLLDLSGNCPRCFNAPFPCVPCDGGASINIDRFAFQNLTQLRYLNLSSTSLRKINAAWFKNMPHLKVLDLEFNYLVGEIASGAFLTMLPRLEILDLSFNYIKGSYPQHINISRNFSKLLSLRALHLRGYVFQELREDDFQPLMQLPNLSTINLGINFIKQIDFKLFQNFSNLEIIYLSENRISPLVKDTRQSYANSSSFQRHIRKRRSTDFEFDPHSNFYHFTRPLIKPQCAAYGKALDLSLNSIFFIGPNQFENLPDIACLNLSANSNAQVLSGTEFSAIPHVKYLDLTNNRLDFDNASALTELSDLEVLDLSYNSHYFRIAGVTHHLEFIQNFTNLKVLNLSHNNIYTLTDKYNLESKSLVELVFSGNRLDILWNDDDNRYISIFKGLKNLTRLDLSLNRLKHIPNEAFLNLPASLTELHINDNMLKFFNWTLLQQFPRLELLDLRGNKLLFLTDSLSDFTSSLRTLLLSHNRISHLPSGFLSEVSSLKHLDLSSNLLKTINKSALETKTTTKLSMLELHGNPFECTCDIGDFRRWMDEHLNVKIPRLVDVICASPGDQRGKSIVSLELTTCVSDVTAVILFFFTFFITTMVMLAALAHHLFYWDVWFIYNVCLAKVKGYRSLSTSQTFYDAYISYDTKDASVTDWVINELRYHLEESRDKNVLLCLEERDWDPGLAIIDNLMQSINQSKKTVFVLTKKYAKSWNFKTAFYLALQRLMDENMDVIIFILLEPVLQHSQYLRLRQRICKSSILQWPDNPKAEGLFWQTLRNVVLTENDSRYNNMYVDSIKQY

[3] = Stability in 1% human serum assessed as full length product after 10 mins; type: ADME, cell-free; details: read-out: Stability

| Activity [1] | Activity [2] | remaining at 10 min [3] | Compound |
| --- | --- | --- | --- |
| inactive | Active | 66% | Nc1ccn([C@@H]2O[C@H](COP(O)(=S)O[C@H]3[C@@H](O)[C@H](n4ccc(N)nc4=O)O[C@@H]3COP(O)(=S)O[C@H]3[C@@H](O)[C@H](n4cnc5c(=O)[nH]c(N)nc54)O[C@@H]3COP(O)(=S)O[C@H]3[C@@H](O)[C@H](n4ccc(=O)[nH]c4=O)O[C@@H]3COP(O)(=S)O[C@H]3[C@@H](O)[C@H](n4ccc(N)nc4=O)O[C@@H]3COP(O)(=S)O[C@H]3[C@@H](O)[C@H](n4cnc5c(=O)[nH]c(N)nc54)O[C@@H]3COP(O)(=S)O[C@H]3[C@@H](O)[C@H](n4ccc(=O)[nH]c4=O)O[C@@H]3CO)[C@@H](OP(O)(=S)OC[C@H]3O[C@@H](n4ccc(=O)[nH]c4=O)[C@H](O)[C@@H]3OP(O)(=S)OC[C@H]3O[C@@H](n4ccc(=O)[nH]c4=O)[C@H](O)[C@@H]3OP(O)(=S)OC[C@H]3O[C@@H](n4ccc(=O)[nH]c4=O)[C@H](O)[C@@H]3OP(O)(=S)OC[C@H]3O[C@@H](n4cnc5c(=O)[nH]c(N)nc54)[C@H](O)[C@@H]3OP(O)(=S)OCC(O)COP(O)(=S)O[C@H]3[C@@H](O)[C@H](n4cnc5c(=O)[nH]c(N)nc54)O[C@@H]3COP(O)(=S)O[C@H]3[C@@H](O)[C@H](n4ccc(=O)[nH]c4=O)O[C@@H]3COP(O)(=S)O[C@H]3[C@@H](O)[C@H](n4ccc(=O)[nH]c4=O)O[C@@H]3COP(O)(=S)O[C@H]3[C@@H](O)[C@H](n4ccc(=O)[nH]c4=O)O[C@@H]3COP(O)(=S)O[C@H]3[C@@H](O)[C@H](n4ccc(N)nc4=O)O[C@@H]3COP(O)(=S)O[C@H]3[C@@H](O)[C@H](n4ccc(N)nc4=O)O[C@@H]3COP(O)(=S)O[C@H]3[C@@H](O)[C@H](n4cnc5c(=O)[nH]c(N)nc54)O[C@@H]3COP(O)(=S)O[C@H]3[C@@H](O)[C@H](n4ccc(=O)[nH]c4=O)O[C@@H]3COP(O)(=S)O[C@H]3[C@@H](O)[C@H](n4ccc(N)nc4=O)O[C@@H]3COP(O)(=S)O[C@H]3[C@@H](O)[C@H](n4cnc5c(=O)[nH]c(N)nc54)O[C@@H]3COP(O)(=S)O[C@H]3[C@@H](O)[C@H](n4ccc(=O)[nH]c4=O)O[C@@H]3CO)[C@H]2O)c(=O)n1 (some centres undefined) |
| inactive | Active | 82% | Nc1ccn([C@@H]2O[C@H](COP(O)(=S)O[C@H]3[C@@H](O)[C@H](n4cnc5c(=O)[nH]c(N)nc54)O[C@@H]3COP(O)(=S)O[C@H]3[C@@H](O)[C@H](n4ccc(=O)[nH]c4=O)O[C@@H]3COCCCCCO)[C@@H](OP(O)(=S)OC[C@H]3O[C@@H](n4ccc(=O)[nH]c4=O)[C@H](O)[C@@H]3OP(O)(=S)OC[C@H]3O[C@@H](n4cnc5c(=O)[nH]c(N)nc54)[C@H](O)[C@@H]3OP(O)(=S)OC[C@H]3O[C@@H](n4ccc(N)nc4=O)[C@H](O)[C@@H]3OP(O)(=S)OC[C@H]3O[C@@H](n4ccc(=O)[nH]c4=O)[C@H](O)[C@@H]3OP(O)(=S)OC[C@H]3O[C@@H](n4ccc(=O)[nH]c4=O)[C@H](O)[C@@H]3OP(O)(=S)OC[C@H]3O[C@@H](n4cnc5c(=O)[nH]c(N)nc54)[C@H](O)[C@@H]3OP(O)(=S)OC[C@H]3O[C@@H](n4ccc(=O)[nH]c4=O)[C@H](O)[C@@H]3OP(O)(=S)OC[C@H]3O[C@@H](n4cnc5c(=O)[nH]c(N)nc54)[C@H](O)[C@@H]3OP(O)(=S)OCC(O)COP(O)(=S)O[C@H]3[C@@H](O)[C@H](n4cnc5c(=O)[nH]c(N)nc54)O[C@@H]3COP(O)(=S)O[C@H]3[C@@H](O)[C@H](n4ccc(=O)[nH]c4=O)O[C@@H]3COP(O)(=S)O[C@H]3[C@@H](O)[C@H](n4cnc5c(=O)[nH]c(N)nc54)O[C@@H]3COP(O)(=S)O[C@H]3[C@@H](O)[C@H](n4ccc(=O)[nH]c4=O)O[C@@H]3COP(O)(=S)O[C@H]3[C@@H](O)[C@H](n4ccc(=O)[nH]c4=O)O[C@@H]3COP(O)(=S)O[C@H]3[C@@H](O)[C@H](n4ccc(N)nc4=O)O[C@@H]3COP(O)(=S)O[C@H]3[C@@H](O)[C@H](n4cnc5c(=O)[nH]c(N)nc54)O[C@@H]3COP(O)(=S)O[C@H]3[C@@H](O)[C@H](n4ccc(=O)[nH]c4=O)O[C@@H]3COP(O)(=S)O[C@H]3[C@@H](O)[C@H](n4ccc(N)nc4=O)O[C@@H]3COP(O)(=S)O[C@H]3[C@@H](O)[C@H](n4cnc5c(=O)[nH]c(N)nc54)O[C@@H]3COP(O)(=S)O[C@H]3[C@@H](O)[C@H](n4ccc(=O)[nH]c4=O)O[C@@H]3COCCCCCO)[C@H]2O)c(=O)n1 (some centres undefined) |
| inactive | Active | 94% | Nc1nc2c(ncn2[C@@H]2O[C@H](COP(O)(=S)O[C@H]3[C@@H](O)[C@H](n4ccc(=O)[nH]c4=O)O[C@@H]3COP(O)(=S)O[C@H]3[C@@H](O)[C@H](n4ccc(=O)[nH]c4=O)O[C@@H]3COP(O)(=S)O[C@H]3[C@@H](O)[C@H](n4ccc(=O)[nH]c4=O)O[C@@H]3COP(O)(=S)O[C@H]3[C@@H](O)[C@H](n4cnc5c(=O)[nH]c(N)nc54)O[C@@H]3COP(O)(=S)O[C@H]3[C@@H](O)[C@H](n4ccc(=O)[nH]c4=O)O[C@@H]3COP(O)(=S)O[C@H]3[C@@H](O)[C@H](n4ccc(=O)[nH]c4=O)O[C@@H]3COP(O)(=S)O[C@H]3[C@@H](O)[C@H](n4cnc5c(=O)[nH]c(N)nc54)O[C@@H]3COP(O)(=S)O[C@H]3[C@@H](O)[C@H](n4cnc5c(=O)[nH]c(N)nc54)O[C@@H]3COP(O)(=S)O[C@H]3[C@@H](O)[C@H](n4ccc(=O)[nH]c4=O)O[C@@H]3COP(O)(=S)O[C@H]3[C@@H](O)[C@H](n4ccc(=O)[nH]c4=O)O[C@@H]3CO)[C@@H](OP(O)(=S)OCC(O)COP(O)(=S)O[C@H]3[C@@H](O)[C@H](n4cnc5c(=O)[nH]c(N)nc54)O[C@@H]3COP(O)(=S)O[C@H]3[C@@H](O)[C@H](n4ccc(=O)[nH]c4=O)O[C@@H]3COP(O)(=S)O[C@H]3[C@@H](O)[C@H](n4ccc(=O)[nH]c4=O)O[C@@H]3COP(O)(=S)O[C@H]3[C@@H](O)[C@H](n4ccc(=O)[nH]c4=O)O[C@@H]3COP(O)(=S)O[C@H]3[C@@H](O)[C@H](n4cnc5c(=O)[nH]c(N)nc54)O[C@@H]3COP(O)(=S)O[C@H]3[C@@H](O)[C@H](n4ccc(=O)[nH]c4=O)O[C@@H]3COP(O)(=S)O[C@H]3[C@@H](O)[C@H](n4ccc(=O)[nH]c4=O)O[C@@H]3COP(O)(=S)O[C@H]3[C@@H](O)[C@H](n4cnc5c(=O)[nH]c(N)nc54)O[C@@H]3COP(O)(=S)O[C@H]3[C@@H](O)[C@H](n4cnc5c(=O)[nH]c(N)nc54)O[C@@H]3COP(O)(=S)O[C@H]3[C@@H](O)[C@H](n4ccc(=O)[nH]c4=O)O[C@@H]3COP(O)(=S)O[C@H]3[C@@H](O)[C@H](n4ccc(=O)[nH]c4=O)O[C@@H]3CO)[C@H]2O)c(=O)[nH]1 (some centres undefined) |
